For orientation: IC90 means the concentration needed for an effect of 90%.

Structures are written as SMILES.

The test system of this assay is Acinetobacter baumannii ATCC17961. Description: Antimicrobial susceptibility testing: 90% growth inhibitory concentration (IC90) determination. Format: cell-based. The note with it: ATCC17961, 90% growth inhibitory concentration, Iso-Sensitest broth, OD 600 nm over 16 h, 35±2° C., read-out: ATCC 17961 IC90. As for the experimental part:
Assay Procedures Antimicrobial Susceptibility Testing: 90% Growth Inhibitory Concentration (IC90) Determination
The in vitro antimicrobial activity of the compounds was determined according to the following procedure:
The assay used a 10-points Iso-Sensitest broth medium to measure quantitatively the in vitro activity of the compounds against Acinetobacter baumannii ATCC17961.
Stock compounds in DMSO were serially twofold diluted (e.g. range from 50 to 0.097 μM final concentration) in 384 wells microtiter plates and inoculated with 49 μl the bacterial suspension in Iso-Sensitest medium to have a final cell concentration of ˜5×10^5 CFU/ml in a final volume/well of 50 μl/well. Microtiter plates were incubated at 35±2° C.
Bacterial cell growth was determined with the measurement of optical density at λ=600 nm each 20 minutes over a time course of 16 h. Growth inhibition was calculated during the logarithmic growth of the bacterial cells with determination of the concentration inhibiting 50% (IC50) and 90% (IC90) of the growth.
Table 1 provides the 90% growth inhibitory concentrations (IC90) in micromoles per liter of the compounds of present invention obtained against the strain Acinetobacter baumannii ATCC17961.
For the compound `CN(C)c1nc(F)c(-c2cnc(C(=O)Nc3ccc(C(=O)N4CCC(C(=O)NC5CC[N+](C)(C)C5)CC4)c(Cl)c3)n2C)cc1F` (stereo not drawn) [Example D13, 1-[2-chloro-4-[[5-[6-(dimethylamino)-2,5-difluoro-3-pyridyl]-1-methyl-imidazole-2-carbonyl]amino]benzoyl]-N-(1,1-dimethylpyrrolidin-1-ium-3-yl)piperidine-4-carboxamide], the IC90 is 730 nM.
With `COc1cc(-c2cnc(C(=O)Nc3ccc(C(=O)N4CCN(C(=O)C5CCNCC5)CC4)c(Cl)c3)n2C)c(Cl)cn1` [Example A8, 5-(5-chloro-2-methoxy-4-pyridyl)-N-[3-chloro-4-[4-(piperidine-4-carbonyl)piperazine-1-carbonyl]phenyl]-1-methyl-imidazole-2-carboxamide] the figure was 570 nM; with `COc1cc(Cl)c(-c2cnc(C(=O)Nc3ccc(C(=O)N4CCN(C(=O)C5CCNCC5)CC4)c(Cl)c3)n2C)cn1` [Example A15, 5-(4-chloro-6-methoxy-3-pyridyl)-N-[3-chloro-4-[4-(piperidine-4-carbonyl)piperazine-1-carbonyl]phenyl]-1-methyl-imidazole-2-carboxamide], 660 nM.
In the case of `CN(C)c1nc(F)c(-c2cnc(C(=O)Nc3ccc(C(=O)N4CCN(C(=O)C5CC(CN)C5)CC4)c(Cl)c3)n2C)cc1F` (stereo not drawn) [Example F7, N-[4-[4-[3-(aminomethyl)cyclobutanecarbonyl]piperazine-1-carbonyl]-3-chloro-phenyl]-5-[6-(dimethylamino)-2,5-difluoro-3-pyridyl]-1-methyl-imidazole-2-carboxamide] it was 390 nM; in that of `CN(C)c1ccc(-c2cnc(C(=O)Nc3ccc(C(=O)N4CCN(C(=O)C5CCNCC5)CC4)c(Cl)c3)n2C)c(Cl)n1` [Example E5, 5-[2-chloro-6-(dimethylamino)-3-pyridyl]-N-[3-chloro-4-[4-(piperidine-4-carbonyl)piperazine-1-carbonyl]phenyl]-1-methyl-imidazole-2-carboxamide], 470 nM; in that of `COc1ncc(-c2cnc(C(=O)Nc3ccc(C(=O)N4CCN(C(=O)C5CCNCC5)CC4)c(Cl)c3)n2C)c(C(F)(F)F)n1` [Example A10, N-[3-chloro-4-[4-(piperidine-4-carbonyl)piperazine-1-carbonyl]phenyl]-5-[2-methoxy-4-(trifluoromethyl)pyrimidin-5-yl]-1-methyl-imidazole-2-carboxamide], 1400 nM.

The values are drawn from patent US12595255B2, “Heteroaryl-substituted imidazole derivatives” (Hoffmann-La Roche Inc., priority 2021, dated 2026).
